{
  "source": "paper PMC11510342",
  "about": "“Synthesis, Characterization, Bioavailability and Antimicrobial Studies of Cefuroxime-Based Organic Salts and Ionic Liquids” (Pharmaceutics, 2024)",
  "key": {"[1]": {"system": "Escherichia coli (ATCC 25922)", "test": "Antimicrobial activity, growth inhibition (OD 600 nm)", "format": "cell-based", "settings": "for IC50: read-out: IC50 E. coli", "protocol": "(§1) The antimicrobial activity of compounds was evaluated against Bacillus subtilis (ATCC 6633), Pseudomonas aeruginosa (ATCC 27853) and Escherichia coli (ATCC 25922) grown in Lysogeny broth (Sigma, Darmstadt, Germany)."}, "[2]": {"test": "Water solubility at 37 °C by consecutive addition of water until full dissolution", "format": "physicochemical", "procedure": "The solubility of the prepared cefuroxime OSILs was determined by adding known volumes of water consecutively to a certain amount of CFX-OSILs at 37 °C until full dissolution was observed. Figure 3 presents the maximum water solubility values of the prepared CFX-OSILs."}, "3T3 murine fibroblasts": {"system": "3T3 murine fibroblasts", "test": "Cytotoxicity on 3T3 cells (MTT assay)", "format": "cell-based", "settings": "24 h; for IC50: read-out: IC50 for toxicity on 3T3 murine fibroblasts; for Toxicity to 3T3 murine fibroblasts compared with the original drug (CFX): 100 µM", "protocol": "Cytotoxic activities were evaluated on 3T3 cells previously acquired from Leibniz Institute DSMZ, Germany biobank (ACC173). Cells were cultured in Dulbecco’s Modified Eagle’s medium: Nutrient Mix F-12 (DMEM/F-12) (Merck, Darmstadt, Germany) supplemented with 10% fetal bovine serum (Gibco, Grand Island, NY, USA), 100 IU/mL penicillin and 100 μg/mL streptomycin (Sigma, St. Louis, MO, USA). For subculture, 3T3 cells were dissociated using trypsin-EDTA (Sigma, USA) with a split 1:5 ratio and seeded into Petri dishes with 25 cm^2 of growth area. Culture medium was replaced every 2 days until cells reached total confluence after 3–5 days of initial seeding. Cells were maintained in a humidified atmosphere with 5% CO2 at 37 °C. The effects on 3T3 cells’ viability were evaluated after cells reached total confluence. […] The effects were estimated via MTT (Sigma, St. Louis, MO, USA) assays as a cellular metabolic activity colorimetric analysis. Results were expressed in percentage of control (%)."}, "[3]": {"system": "Pseudomonas aeruginosa (ATCC 27853)", "test": "Antimicrobial activity, growth inhibition (OD 600 nm)", "format": "cell-based", "settings": "for IC50: read-out: IC50 P. aeruginosa", "protocol": "as §1"}, "[4]": {"system": "Bacillus subtilis (ATCC 6633)", "test": "Antimicrobial activity, growth inhibition (OD 600 nm)", "format": "cell-based", "settings": "for IC50: read-out: IC50 B. subtilis", "protocol": "as §1"}, "[5]": {"test": "Octanol-water partition studies (Kow)", "format": "physicochemical"}, "[6]": {"settings": "cited from earlier work"}, "[7]": {"settings": "Escherichia coli, ATCC25922, 6 h, 0.03–100 µM, interval in brackets"}, "[8]": {"settings": "Mus musculus, Fibroblast, MTT, 1–100 µM"}, "[9]": {"settings": "Pseudomonas aeruginosa, ATCC27853, 6 h, 0.03–100 µM, interval in brackets"}, "[10]": {"settings": "Bacillus subtilis, ATCC6633, 6 h, 0.03–100 µM, interval in brackets"}, "[11]": {"settings": "6 h, 0.03–100 µM, interval in brackets"}},
  "note": "Where two headings read alike, the source gives them in different places.",
  "data": [
    {"smiles": "CO/N=C(\\C(=O)N[C@@H]1C(=O)N2C(C(=O)O)=C(COC(N)=O)CS[C@H]12)c1ccco1", "note": "[CFX, Cefuroxime]", "values": [
      {"measurement": "IC50", "setting": "[1]; [7]", "value": 6.42, "unit": "µM"},
      {"measurement": "solubility", "setting": "[2]; water, 37 °C", "value": "< 700", "unit": "µg/mL"},
      {"measurement": "IC50", "setting": "3T3 murine fibroblasts; [8]", "value": "> 100", "unit": "µM"},
      {"measurement": "IC50", "setting": "[3]; [9]", "value": 0.55, "unit": "µM"},
      {"measurement": "IC50", "setting": "[4]; [10]", "value": 0.95, "unit": "µM"}
    ]},
    {"smiles": "CCCCCC[n+]1ccccc1", "note": "[[C6Py]Br, reference compound]", "values": [
      {"measurement": "IC50", "setting": "[1]; [7]", "value": "> 100", "unit": "µM"},
      {"measurement": "IC50", "setting": "3T3 murine fibroblasts; [8]", "value": "> 100", "unit": "µM"},
      {"measurement": "IC50", "setting": "[3]; [9]", "value": "> 100", "unit": "µM"},
      {"measurement": "IC50", "setting": "[4]; [10]", "value": "> 100", "unit": "µM"}
    ]},
    {"smiles": "CCCCCC[n+]1ccccc1.CO/N=C(\\C(=O)N[C@@H]1C(=O)N2C(C(=O)[O-])=C(COC(N)=O)CS[C@H]12)c1ccco1", "note": "[[C6Py][CFX]]", "values": [
      {"measurement": "IC50", "setting": "[1]; [11]", "value": 26.8, "unit": "µM"},
      {"measurement": "Toxicity to 3T3 murine fibroblasts compared with the original drug (CFX)", "setting": "3T3 murine fibroblasts; MTT", "value": "no additional detrimental effect"},
      {"measurement": "IC50", "setting": "3T3 murine fibroblasts; MTT, 1–100 µM", "value": "> 100", "unit": "µM"},
      {"measurement": "IC50", "setting": "[3]; [11]", "value": 3.99, "unit": "µM"},
      {"measurement": "IC50", "setting": "[4]; [11]", "value": 8.85, "unit": "µM"}
    ]},
    {"smiles": "CCCCCCCCCC[n+]1ccccc1", "note": "[[C10Py]Br, reference compound]", "values": [
      {"measurement": "IC50", "setting": "[1]; [7]", "value": "> 100", "unit": "µM"},
      {"measurement": "IC50", "setting": "3T3 murine fibroblasts; [8]", "value": 98, "unit": "µM"},
      {"measurement": "IC50", "setting": "[3]; [9]", "value": 95.5, "unit": "µM"},
      {"measurement": "IC50", "setting": "[4]; [10]", "value": 80.9, "unit": "µM"}
    ]},
    {"smiles": "CCCCCCCCCC[n+]1ccccc1.CO/N=C(\\C(=O)N[C@@H]1C(=O)N2C(C(=O)[O-])=C(COC(N)=O)CS[C@H]12)c1ccco1", "note": "[[C10Py][CFX]]", "values": [
      {"measurement": "IC50", "setting": "[1]; [11]", "value": 90.3, "unit": "µM"},
      {"measurement": "Increase in water solubility relative to free CFX", "setting": "[2]", "value": "> 7.7", "unit": "fold"},
      {"measurement": "Water solubility", "setting": "[2]", "value": 5400, "unit": "µg/mL"},
      {"measurement": "Toxicity to 3T3 murine fibroblasts compared with the original drug (CFX)", "setting": "3T3 murine fibroblasts; MTT", "value": "more toxic"},
      {"measurement": "Relative toxicity on 3T3 cells (comparison of IC50 values)", "setting": "3T3 murine fibroblasts; MTT", "value": "approximately five-times less toxic"},
      {"measurement": "IC50", "setting": "3T3 murine fibroblasts; MTT, 1–100 µM", "value": 62.5, "unit": "µM"},
      {"measurement": "IC50", "setting": "[3]; [11]", "value": 16.6, "unit": "µM"},
      {"measurement": "IC50", "setting": "[4]; [11]", "value": 23, "unit": "µM"},
      {"measurement": "Kow in comparison with the original drug (CFX)", "setting": "[5]", "value": "approximately four-times greater"}
    ]},
    {"smiles": "CCCCCCCCCCCCCCCC[n+]1ccn(C)c1", "note": "[[C16MIM]Br, reference compound]", "values": [
      {"measurement": "IC50", "setting": "[1]; [7]", "value": 11.3, "unit": "µM"},
      {"measurement": "IC50", "setting": "3T3 murine fibroblasts; [8]", "value": 13.3, "unit": "µM"},
      {"measurement": "IC50", "setting": "[3]; [9]", "value": 4.81, "unit": "µM"},
      {"measurement": "IC50", "setting": "[4]; [10]", "value": 5.19, "unit": "µM"}
    ]},
    {"smiles": "CCCCCCCCCCCCCCCC[n+]1ccn(C)c1.CO/N=C(\\C(=O)N[C@@H]1C(=O)N2C(C(=O)[O-])=C(COC(N)=O)CS[C@H]12)c1ccco1", "note": "[[C16MIM][CFX]]", "values": [
      {"measurement": "IC50", "setting": "[1]; [11]", "value": 9.23, "unit": "µM"},
      {"measurement": "Water solubility", "setting": "[2]", "value": 11000, "unit": "µg/mL"},
      {"measurement": "Toxicity to 3T3 murine fibroblasts compared with the original drug (CFX)", "setting": "3T3 murine fibroblasts; MTT", "value": "more toxic"},
      {"measurement": "IC50", "setting": "3T3 murine fibroblasts; MTT, 1–100 µM", "value": 13.9, "unit": "µM"},
      {"measurement": "IC50", "setting": "[3]; [11]", "value": 4.02, "unit": "µM"},
      {"measurement": "IC50", "setting": "[4]; [11]", "value": 2.65, "unit": "µM"},
      {"measurement": "Octanol-water partition (Kow)", "setting": "[5]", "value": 1.7}
    ]},
    {"smiles": "CCCCCCCCCCCCCCCC[n+]1ccccc1.CO/N=C(\\C(=O)N[C@H]1C(=O)N2C(C(=O)[O-])=C(COC(N)=O)CS[C@@H]12)c1ccco1", "note": "[[C16Py][CFX]]", "values": [
      {"measurement": "IC50", "setting": "[1]; [11]", "value": 9.66, "unit": "µM"},
      {"measurement": "Increase in water solubility relative to free CFX", "setting": "[2]", "value": "> 7.7", "unit": "fold"},
      {"measurement": "Water solubility", "setting": "[2]", "value": 5500, "unit": "µg/mL"},
      {"measurement": "Toxicity to 3T3 murine fibroblasts compared with the original drug (CFX)", "setting": "3T3 murine fibroblasts; MTT", "value": "more toxic"},
      {"measurement": "IC50", "setting": "3T3 murine fibroblasts; MTT, 1–100 µM", "value": 11.7, "unit": "µM"},
      {"measurement": "IC50", "setting": "[3]; [11]", "value": 4.54, "unit": "µM"},
      {"measurement": "IC50", "setting": "[4]; [11]", "value": 5.08, "unit": "µM"},
      {"measurement": "Octanol-water partition (Kow)", "setting": "[5]", "value": 2.5}
    ]},
    {"smiles": "c1cc[n+](CCCCCCCCCC[n+]2ccccc2)cc1", "note": "[[PyC10Py]Br2, decylbispyridinium dibromide, reference compound]", "values": [
      {"measurement": "IC50", "setting": "[1]; Escherichia coli, ATCC25922, 6 h", "value": "> 100", "unit": "µM"},
      {"measurement": "IC50", "setting": "3T3 murine fibroblasts; Mus musculus, Fibroblast", "value": "> 100", "unit": "µM"},
      {"measurement": "IC50", "setting": "[3]; Pseudomonas aeruginosa, ATCC27853, 6 h", "value": "> 100", "unit": "µM"},
      {"measurement": "IC50", "setting": "[4]; Bacillus subtilis, ATCC6633, 6 h", "value": "> 100", "unit": "µM"}
    ]},
    {"smiles": "CO/N=C(\\C(=O)N[C@@H]1C(=O)N2C(C(=O)[O-])=C(COC(N)=O)CS[C@H]12)c1ccco1.CO/N=C(\\C(=O)N[C@@H]1C(=O)N2C(C(=O)[O-])=C(COC(N)=O)CS[C@H]12)c1ccco1.c1cc[n+](CCCCCCCCCC[n+]2ccccc2)cc1", "note": "[[PyC10Py][CFX]2]", "values": [
      {"measurement": "IC50", "setting": "[1]; [11]", "value": 4.92, "unit": "µM"},
      {"measurement": "Antimicrobial activity against E. coli compared with CFX", "setting": "[1]; times more effective than CFX", "value": 1.3},
      {"measurement": "Water solubility", "setting": "[2]; water, 37 °C", "value": 140000, "unit": "µg/mL"},
      {"measurement": "Toxicity to 3T3 murine fibroblasts compared with the original drug (CFX)", "setting": "3T3 murine fibroblasts; MTT", "value": "no additional detrimental effect"},
      {"measurement": "IC50", "setting": "3T3 murine fibroblasts; MTT, 1–100 µM", "value": "> 100", "unit": "µM"},
      {"measurement": "Antimicrobial activity against P. aeruginosa compared with CFX", "setting": "[3]", "value": "comparable activity to CFX"},
      {"measurement": "IC50", "setting": "[3]; [11]", "value": 0.66, "unit": "µM"},
      {"measurement": "Antimicrobial activity against B. subtilis compared with CFX", "setting": "[4]", "value": "comparable activity to CFX"},
      {"measurement": "IC50", "setting": "[4]; [11]", "value": 0.85, "unit": "µM"}
    ]},
    {"smiles": "CO/N=C(\\C(=O)N[C@@H]1C(=O)N2C(C(=O)OC(C)OC(C)=O)=C(COC(N)=O)CS[C@H]12)c1ccco1", "note": "(some centres unmarked) [cefuroxime axetil]", "values": [
      {"measurement": "Time of peak concentration in serum", "setting": "[6]; after oral administration", "value": "approximately 2 h"}
    ]},
    {"smiles": "CO/N=C(\\C(=O)N[C@@H]1C(=O)N2C(C(=O)O)=C(COC(N)=O)CS[C@H]12)c1ccco1", "note": "[cefuroxime sodium]", "values": [
      {"measurement": "Serum concentration", "setting": "[6]; single 500 mg intramuscular dose, for a period of 2.5 to 3 h", "value": 8000, "unit": "ng/mL"},
      {"measurement": "Half-life", "setting": "[6]; single 500 mg intramuscular dose", "value": 1.17, "unit": "h"}
    ]}
  ]
}
